# In patent US20090099240A1, “METHODS FOR TREATING ENERGY METABOLISM DISORDERS BY INHIBITING FATTY ACID AMIDE HYDROLASE ACTIVITY” (N.V. Organon, priority 2006, published 2009):
# Assays:
# [1] = tested on: APOE*3-Leiden transgenic (E3L) mice; test: Plasma ketone body (D-3-hydroxybutyrate) levels in E3L mice; assay type: in vivo, mouse
# Excerpt: (§1) E3L mice were fed a high cholesterol (1% w/w) diet (HC diet) for a period of four weeks. Animals were then matched based on their plasma cholesterol levels, and were divided into five groups, each of which was maintained on an HC diet.
# We quantified plasma D-3-hydroxybutyrate (b-HBA; ketone bodies) levels were quantified in plasma samples obtained after a 4-hour fasting period at time points t=0, t=2, and t=4 weeks using kits #2940 (b-HBA reagent set) and #2947 (b-HBA control set)) according to the guidelines and protocol specified by the manufacturer (Instruchemie, Delfzijl, The Netherlands).
# [2] = tested on: APOE*3-Leiden transgenic (E3L) mice; test: Plasma adiponectin ELISA in E3L mice; assay type: in vivo, mouse
# Excerpt: as §1
# We determined plasma adiponectin levels after a four hour fasting period at 0, 14, 28 days, using a mouse-specific adiponectin/Acrp30 ELISA (kit number MRP300 from R&D Systems, Minneapolis, Minn.).
# [3] = tested on: APOE*3-Leiden transgenic (E3L) mice; test: Food intake per animal per day in E3L mice; assay type: in vivo, mouse
# Excerpt: (§2) We assessed the effect of inhibiting FAAH activity on body weight, body fat, triglyceride levels, cholesterol levels in APOE*3-Leiden transgenic (E3L) mice, an animal model of hyperlipidemia. […] See van Vlijmen et al. (1994), J. Clin Invest., 93:1403-1410. Indeed, upon high fat and cholesterol feeding, these mice develop various stages of atherosclerotic lesions depending on plasma total cholesterol levels and resembling those found in humans. See Groot et al. (1996), Arterioscler. Thromb. Vasc. Biol., 16:926-933; Versch ren et al. (2005), Arterioscler. Thromb. Vasc Biol., 25:161-167; and Lutgens et al. (1999), Circulation; 99(2):276-283). Thus, the E3L mouse is a suitable model for the investigation of the efficacy of anti-atherosclerotic drugs.
# as §1
# [4] = tested on: cynomolgus monkeys; test: Time course of plasma OEA levels after oral dosing in cynomolgus monkeys; assay type: in vivo, cynomolgus monkey; conditions: oral 50-1500 mg/kg
# Method: Afterwards, a time course of plasma OEA levels was determined for each subject by obtaining a plasma sample at 0.5, 1, 2, 4, 8, 12, and 24 hours post-administration.
# [5] = tested on: APOE*3-Leiden transgenic (E3L) mice; test: Total plasma cholesterol in E3L mice; assay type: in vivo, mouse
# Excerpt: as §2, §1
# (§3) Blood samples were collected at days 0, 14, and 28 of the treatment period. At the end of the treatment period, animals were sacrificed, and various tissues and organs were analyzed. Unless otherwise indicated, values are mean±standard deviation (SD).
# [6] = tested on: APOE*3-Leiden transgenic (E3L) mice; test: Total plasma triglyceride levels in E3L mice; assay type: in vivo, mouse
# Excerpt: as §2, §1, §3
# [7] = tested on: APOE*3-Leiden transgenic (E3L) mice; test: Plasma alanine aminotransferase (ALAT) activity in E3L mice; assay type: in vivo, mouse
# Method: as §1
# Levels of plasma alanine aminotransferase (ALAT) were determined on day 28 (table 7). Plasma ALAT is a measure of hepatic stress and increases in plasma ALAT levels are often associated with liver damage. […] Thus, a reduction in plasma ALAT levels is associated with improved liver function.
# [8] = tested on: APOE*3-Leiden transgenic (E3L) mice; test: Body weight in E3L mice on high cholesterol diet; assay type: in vivo, mouse
# Excerpt: as §2, §1
# [9] = tested on: APOE*3-Leiden transgenic (E3L) mice; test: Oil Red O staining of liver sections (steatosis) in E3L mice; assay type: in vivo, mouse; conditions: compared to the control vehicle group
# Excerpt: as §1
# In order to examine cellular stress in the liver due to lipid storage (steatosis), we stained frozen liver tissue sections with Oil Red O a fat-soluble diazo dye used to stain for lipids. Digital photomicrographs of liver cross sections were taken for each individual animal (magnification: 20 fold). […]
# [10] = tested on: APOE*3-Leiden transgenic (E3L) mice; test: Plasma leptin ELISA in E3L mice; assay type: in vivo, mouse
# Excerpt: as §1
# Accordingly, we quantified plasma leptin levels after a four hour fasting period at treatment time points 0, 14, and 28 days using a mouse-specific leptin ELISA or (kit number MOB00 from R&D Systems, Minneapolis, Minn.) according to the guidelines and protocol specified by the manufacturer.
# [11] = tested on: APOE*3-Leiden transgenic (E3L) mice; test: Plasma lipoprotein profiles (size fractionation of pooled plasma) in E3L mice; assay type: in vivo, mouse; conditions: day 28, FIG. 1
# Method: as §1
# Lipoprotein profiles were determined in pooled plasma from day 28, as described in Verschuren et al. (2005), Arterioscler. Thromb. Vasc Biol., 25:161-167. An equal amount of plasma per animal was used to prepare a plasma pool for each group. Plasma lipoproteins in each plasma pool were separated by size fractionation. Typically, VLDL, IDL/LDL and HDL lipoproteins are eluted in fractions 4-8, fractions 11-16 and fractions 17-20, respectively.
# [12] = tested on: APOE*3-Leiden transgenic (E3L) mice; test: Lipid content of liver (TLC) in E3L mice; assay type: in vivo, mouse
# Excerpt: as §1
# A reduction of Red Oil O staining in liver generally indicates reduced liver lipid content. We therefore quantified levels of lipids in livers from each animal, as described in Havekes et al. (1987), Biochem. J., 247:739-746; Delsing et al. (2005), J. Cardiovasc. Pharmacol., 45:53-60; and Post et al. (2004), ATVB, 24:768-774. Liver tissue homogenates were prepared. Lipids were extracted, dried under nitrogen, dissolved in chloroform, and spotted onto a channeled 20×20 cm silica gel thin layer chromatography (TLC) plate. Lipids were then separated, TLC plates were warmed up to visualize bands, and bands were quantified using an internal standard as reference.
# [13] = tested on: APOE*3-Leiden transgenic (E3L) mice; test: Organ and tissue weights in E3L mice on high cholesterol diet
# Excerpt: as §2, §1, §3
# [14] = E3L mice, HC diet, end of four-week treatment, mean ± SD
structure (smiles),measurement,setting,value
NC(=O)c1cccc(-c2cccc(OC(=O)NC3CCCCC3)c2)c1 [KDS-4103],"plasma HB levels, in words","[1]; at 28 days, compared to the oral vehicle control group",significantly lower
same,Plasma Ketone Body (HB) levels,"[1]; day 0, 4-hour fasting",0.73 ± 0.24 mM
same,Plasma Ketone Body (HB) levels,"[1]; day 14, 4-hour fasting",0.32 ± 0.11 mM
same,Plasma Ketone Body (HB) levels,"[1]; day 28, 4-hour fasting",^#0.43 ± 0.11^ mM
same,Plasma Adiponectin Levels,"[2]; day 0, four hour fasting",10.4 ± 1.9 µg/mL
same,Plasma Adiponectin Levels,"[2]; day 14, four hour fasting",10.2 ± 2.7 µg/mL
same,Plasma Adiponectin Levels,"[2]; day 28, four hour fasting",^#11.9 ± 1.9^ mg/ml
same,"plasma adiponectin level, in words",[2]; day 28 as compared to day 0,significantly higher
same,Food Intake Per Animal Per Day,[3]; interval 0-0.5 weeks,2.3 ± 0.1 g
same,Food Intake Per Animal Per Day,[3]; interval 0.5-1.0 weeks,2.4 ± 0.1 g
same,Food Intake Per Animal Per Day,[3]; interval 1.0-1.5 weeks,2.3 ± 0.2 g
same,Food Intake Per Animal Per Day,[3]; interval 1.5-2.0 weeks,2.6 ± 0.1 g
same,Food Intake Per Animal Per Day,[3]; interval 2.0-2.5 weeks,2.3 ± 0.3 g
same,Food Intake Per Animal Per Day,[3]; interval 2.5-3.0 weeks,2.5 ± 0.1 g
same,Food Intake Per Animal Per Day,[3]; interval 3.0-3.5 weeks,2.4 ± 0.3 g
same,Food Intake Per Animal Per Day,[3]; interval 3.5-4.0 weeks,*2.0 ± 0.1 g
same,Food Intake Per Animal Per Day,[3]; interval run-in,2.5 ± 0.5 g
same,"food intake, in words",[3]; last time point,"slight, but significant, decrease"
same,time of peak plasma OEA levels,[4]; FIG. 2,four
same,"plasma OEA levels, in words",[4]; all time points after the peak (up to 24 hours),remained elevated
same,"plasma OEA levels, in words","[4]; two hours after administration, FIG. 2",clearly elevated
same,Total Plasma Cholesterol,[5]; day 0,14.3 ± 3.2 mM
same,Total Plasma Cholesterol,[5]; day 14,^#19.1 ± 4.9 mM
same,Total Plasma Cholesterol,[5]; day 28,^#19.5 ± 4.1 mM
same,"total plasma cholesterol levels, in words","[5]; days 14 and 28, relative to respective control group",slightly and significantly increased
same,Total Plasma Triglyceride Levels,[6]; day 0,1.5 ± 0.4 mM
same,Total Plasma Triglyceride Levels,[6]; day 14,1.9 ± 0.6 mM
same,Total Plasma Triglyceride Levels,[6]; day 28,1.9 ± 0.5 mM
same,"total plasma triglyceride levels, in words",[6]; relative to respective control group,not significantly changed
same,Plasma Alanine Amino Transferase Activity,[7]; day 28,*94.0 ± 22.1 U/L
same,"plasma ALAT levels, in words","[7]; day 28, compared to respective control group",significantly decreased
same,"body weights, in words","[8]; last time point (4 weeks), within group",significantly reduced
same,Body Weight,[8]; week 0,21.8 ± 1.1 g
same,Body Weight,[8]; week 0.5,21.9 ± 1.0 g
same,Body Weight,[8]; week 1,21.9 ± 1.0 g
same,Body Weight,[8]; week 1.5,*21.3 ± 0.9 g
same,Body Weight,[8]; week 2,*21.4 ± 0.9 g
same,Body Weight,[8]; week 2.5,*21.4 ± 0.9 g
same,Body Weight,[8]; week 3,*21.3 ± 0.9 g
same,Body Weight,[8]; week 3.5,21.5 ± 0.9 g
same,Body Weight,[8]; week 4,*21.5 ± 1.0 g
same,"steatotic (Oil Red O) staining in liver, in words",[9],"small, but not significant decrease"
same,Plasma Leptin Levels,"[10]; day 0, four hour fasting",^#3.9 ± 1.5 ng/ml
same,Plasma Leptin Levels,"[10]; day 14, four hour fasting",^#4.5 ± 2.1 ng/ml
same,Plasma Leptin Levels,"[10]; day 28, four hour fasting",^#5.1 ± 2.3 ng/ml
same,"plasma leptin levels, in words",[10]; relative to the oral vehicle control group,significantly decreased
same,"IDL/LDL particle size, in words",[11],slight shift toward larger IDL/LDL particles
same,"VLDL fraction of plasma lipoprotein profile, in words",[11],increase
same,"liver triglycerides (TG), in words",[12]; compared to respective control group,significantly decreased
same,"liver cholesterol esters (CE), in words",[12]; compared to the oral vehicle group,significantly increased
same,Lipid Content of Liver: Cholesterol Esters,[12]; end of four-week treatment,^#59 ± 6
same,Lipid Content of Liver: Free Cholesterol,[12]; end of four-week treatment,22 ± 2
same,Lipid Content of Liver: Triglycerides,[12]; end of four-week treatment,*64 ± 14
same,Organ and Tissue Weights: Brain,[13]; [14],^#0.46 ± 0.02^ g
same,Organ and Tissue Weights: Fat (gonadal fat),[13]; [14],*0.22 ± 0.04 g
same,Organ and Tissue Weights: Heart,[13]; [14],0.14 ± 0.02 g
same,Organ and Tissue Weights: Liver,[13]; [14],1.03 ± 0.14 g
same,Organ and Tissue Weights: Lung,[13]; [14],0.18 ± 0.01 g
same,"brain weight, in words",[13]; end of treatment,"slight, but significant increase"
same,"heart, liver, or lung weights, in words",[13]; end of treatment,No significant changes
same,"gonadal fat weight, in words",[13]; relative to the oral vehicle group,significantly lower
